In publication doi:10.1101/2025.03.14.643404, “A Bivalent Molecular Glue Linking Lysine Acetyltransferases to Oncogene-induced Cell Death” (bioRxiv, 2025):
Where two headings read alike, the source gives them in different places.

Experiments:
p300^BD = target: T1, p300^BD (Homo sapiens, UniProt Q09472); test: Isothermal calorimetry, p300BD titrations; assay type: binding; conditions: ITC; for Kd: 25 °C
T1 sequence (Q09472 1049-1156 limits assumed): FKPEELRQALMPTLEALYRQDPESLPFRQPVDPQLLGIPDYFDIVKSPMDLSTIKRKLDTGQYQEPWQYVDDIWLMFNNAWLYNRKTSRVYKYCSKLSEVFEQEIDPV
Method: 12 hours prior to performing ITC, frozen stocks of 6xHis-p300^BD and BCL6^BTB were dialyzed for two hours in ITC buffer at 4°C (50 mM HEPES pH 7.4, 100 μM TCEP, 150 mM NaCl), followed by dialysis in fresh ITC buffer overnight at 4°C to remove glycerol and equalize protein mixtures. Samples were centrifuged at 10,000g for 10 min to remove any precipitate. In all titrations, DMSO was added to protein mixtures to match the DMSO concentration of ligand dissolved in ITC buffer. For binary assays with TCIP3, dialyzed 6xHis-p300^BD or BCL6^BTB were titrated from the syringe into a cell containing TCIP3 dissolved in ITC buffer. For p300 titrations, 50 μM or 25 μM protein was titrated into 5 μM or 2.5 μM, respectively, of TCIP3. For BCL6 titrations, 70 μM or 40 μM protein was titrated into 7 μM or 5 μM, respectively, of TCIP3. For ternary titrations, 20× 6xHis-p300^BD was incubated with 1x TCIP3 in the cell to drive saturation of the binary complex, followed by a titration of 10x BCL6^BTB from the syringe, at 310 rpm stirring at 25°C. The following concentrations were used in each run: 15 μM BCL6^BTB, 30 μM p300, and 1.5 μM TCIP3; 18 μM BCL6 ^BTB, 36 μM 6xHis-p300^BD, and 1.8 μM TCIP3; or 10 μM BCL6 ^BTB, 20 μM 6xHis-p300^BD, and 1 μM TCIP3. Alternatively, 20x BCL6^BTB was incubated with 1x TCIP3 in the cell to drive saturation of the binary complex, followed by a titration of 10× 6xHis-p300^BD from the syringe, at 310 rpm stirring at 25°C. The following concentrations were used in each run: 30 μM BCL6, 15 μM 6xHis-p300^BD, and 1.5 μM TCIP3; 20 μM BCL6 ^BTB, 10 μM 6xHis-p300^BD, and 1 μM TCIP3; or 40 μM BCL6 ^BTB, 20 μM 6xHis-p300^BD, and 2 μM TCIP3. The first one or two injections and outliers from instrument noise were routinely excluded. Data were fit to a one-site model using MicroCal LLC Origin software. The following injection parameters were used for each run: (Total injection number: 35; Cell temp: 25 °C; Ref power: 10; Initial delay: 250 s; stirring speed: 310; Feedback mode: High; volume: 8 μL; Duration: 13.7 s; Filter period: 2; initial injection volume: 2 μL).

BCL6 = target: T2, BCL6 (Homo sapiens, UniProt P41182+Q09472+Q92793); test: Acetyl-lysine IP and western blot for BCL6 in SUDHL5; assay type: cell-based; conditions: SUDHL5, 1 hour
T2 construct: endogenous in cells; host or cells: SUDHL5
Method: Cells were plated at 1M/mL and treated with compound or DMSO at indicated timepoints and doses. Cells were harvested on ice, counted, normalized by count, and washed 1X in PBS containing compound or DMSO. For only BCL6 immunoprecipitation, compound or DMSO was maintained in nuclear preparation buffers at identical concentration to cell treatment throughout. Nuclei were prepared by incubation in Buffer A (25 mM HEPES pH 7.5, 25 mM KCl, 0.05 mM EDTA, 1mM MgCl2, 10% glycerol, 0.1% NP-40) supplemented with protease inhibitors (1 mM PMSF, ~[…] pepstatin, aprotinin, and leupeptin) at 4 °C for 7 mins. Nuclear preparation was confirmed by Trypan blue staining and nuclei were pelleted by centrifugation for 5 min at 500g at 4 °C. Pelleted nuclei were resuspended in IP Buffer (25 mM HEPES pH 7.5, 150mM KCl, 0.05 mM EDTA, 1 mM MgCl2, 10% glycerol, 0.1% NP-40) supplemented with protease inhibitors and 1 μL/250 units benzonase (Sigma E1014). Chromatin was removed by incubation with rotation for 30 min and nuclei sheared using a 27-gauge needle exactly five times. […]
Cells were plated at 1M/mL and treated with drug at indicated timepoints and doses. […] After 10 min centrifugation at 14,000g and 4 °C, the supernatant was collected and protein concentration was measured by Bradford. […] ImageStudio (Licor) was used for blot imaging and quantification.

T2 sequence (Q09472 2-2414 limits assumed, other chains not shown): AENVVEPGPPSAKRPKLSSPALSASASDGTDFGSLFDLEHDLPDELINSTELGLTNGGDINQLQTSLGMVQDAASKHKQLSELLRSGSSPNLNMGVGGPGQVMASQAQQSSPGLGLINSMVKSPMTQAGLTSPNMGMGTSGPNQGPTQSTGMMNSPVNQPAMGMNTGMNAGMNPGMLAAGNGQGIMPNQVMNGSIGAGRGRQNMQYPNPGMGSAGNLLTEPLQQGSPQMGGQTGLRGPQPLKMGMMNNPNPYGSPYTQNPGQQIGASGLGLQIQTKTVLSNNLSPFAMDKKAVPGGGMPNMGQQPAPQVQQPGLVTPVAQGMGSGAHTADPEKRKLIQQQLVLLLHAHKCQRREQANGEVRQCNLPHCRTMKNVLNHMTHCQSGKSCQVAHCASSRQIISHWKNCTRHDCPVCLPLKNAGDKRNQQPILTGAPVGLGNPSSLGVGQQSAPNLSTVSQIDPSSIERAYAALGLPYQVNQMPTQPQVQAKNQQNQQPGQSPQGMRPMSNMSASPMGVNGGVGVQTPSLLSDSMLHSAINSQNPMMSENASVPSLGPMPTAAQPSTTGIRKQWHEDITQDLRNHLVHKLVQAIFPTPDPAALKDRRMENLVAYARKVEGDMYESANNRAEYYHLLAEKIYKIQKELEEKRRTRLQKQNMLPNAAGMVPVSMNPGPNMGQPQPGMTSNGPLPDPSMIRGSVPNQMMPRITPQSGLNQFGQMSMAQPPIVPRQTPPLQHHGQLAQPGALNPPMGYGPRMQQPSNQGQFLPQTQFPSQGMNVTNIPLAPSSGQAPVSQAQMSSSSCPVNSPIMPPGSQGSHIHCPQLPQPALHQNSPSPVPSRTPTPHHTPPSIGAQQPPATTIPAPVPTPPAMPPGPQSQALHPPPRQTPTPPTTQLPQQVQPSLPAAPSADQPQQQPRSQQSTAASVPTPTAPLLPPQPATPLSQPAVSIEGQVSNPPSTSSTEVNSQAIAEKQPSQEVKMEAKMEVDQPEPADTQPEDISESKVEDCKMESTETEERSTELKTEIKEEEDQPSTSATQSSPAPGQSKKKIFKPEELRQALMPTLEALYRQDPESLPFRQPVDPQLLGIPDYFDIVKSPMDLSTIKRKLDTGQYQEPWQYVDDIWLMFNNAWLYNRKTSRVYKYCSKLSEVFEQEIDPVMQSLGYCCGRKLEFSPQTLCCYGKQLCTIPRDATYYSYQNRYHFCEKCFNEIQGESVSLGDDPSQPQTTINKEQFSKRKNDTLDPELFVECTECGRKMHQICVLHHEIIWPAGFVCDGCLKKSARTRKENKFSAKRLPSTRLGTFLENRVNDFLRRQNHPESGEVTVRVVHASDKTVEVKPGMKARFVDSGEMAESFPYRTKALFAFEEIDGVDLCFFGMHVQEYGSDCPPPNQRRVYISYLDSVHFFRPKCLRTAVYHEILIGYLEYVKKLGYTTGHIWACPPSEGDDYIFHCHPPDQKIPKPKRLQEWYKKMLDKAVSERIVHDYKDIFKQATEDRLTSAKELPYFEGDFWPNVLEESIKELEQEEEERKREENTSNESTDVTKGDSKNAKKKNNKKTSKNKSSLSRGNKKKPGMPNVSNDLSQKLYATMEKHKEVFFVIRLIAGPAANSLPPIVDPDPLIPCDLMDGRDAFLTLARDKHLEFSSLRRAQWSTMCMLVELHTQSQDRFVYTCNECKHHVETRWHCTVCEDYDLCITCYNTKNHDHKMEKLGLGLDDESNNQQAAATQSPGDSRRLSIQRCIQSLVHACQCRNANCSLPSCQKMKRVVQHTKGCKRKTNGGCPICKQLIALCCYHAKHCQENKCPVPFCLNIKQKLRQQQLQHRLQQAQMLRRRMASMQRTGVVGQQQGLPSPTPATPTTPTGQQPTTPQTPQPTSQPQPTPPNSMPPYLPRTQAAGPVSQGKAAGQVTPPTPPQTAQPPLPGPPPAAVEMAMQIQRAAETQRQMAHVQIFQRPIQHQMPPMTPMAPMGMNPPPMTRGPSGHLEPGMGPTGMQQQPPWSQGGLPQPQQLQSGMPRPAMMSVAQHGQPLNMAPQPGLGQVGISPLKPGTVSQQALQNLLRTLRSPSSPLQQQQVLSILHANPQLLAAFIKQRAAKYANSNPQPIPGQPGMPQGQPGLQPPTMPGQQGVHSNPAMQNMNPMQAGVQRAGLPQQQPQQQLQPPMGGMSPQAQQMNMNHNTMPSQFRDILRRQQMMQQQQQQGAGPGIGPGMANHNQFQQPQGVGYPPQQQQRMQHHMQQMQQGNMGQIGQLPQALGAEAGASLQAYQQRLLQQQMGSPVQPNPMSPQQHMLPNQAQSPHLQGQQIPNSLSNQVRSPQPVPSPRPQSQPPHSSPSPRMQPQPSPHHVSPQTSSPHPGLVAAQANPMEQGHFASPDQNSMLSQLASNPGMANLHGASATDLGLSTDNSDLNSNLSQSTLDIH
T2 sequence (Q92793 2-2442 limits assumed, other chains not shown): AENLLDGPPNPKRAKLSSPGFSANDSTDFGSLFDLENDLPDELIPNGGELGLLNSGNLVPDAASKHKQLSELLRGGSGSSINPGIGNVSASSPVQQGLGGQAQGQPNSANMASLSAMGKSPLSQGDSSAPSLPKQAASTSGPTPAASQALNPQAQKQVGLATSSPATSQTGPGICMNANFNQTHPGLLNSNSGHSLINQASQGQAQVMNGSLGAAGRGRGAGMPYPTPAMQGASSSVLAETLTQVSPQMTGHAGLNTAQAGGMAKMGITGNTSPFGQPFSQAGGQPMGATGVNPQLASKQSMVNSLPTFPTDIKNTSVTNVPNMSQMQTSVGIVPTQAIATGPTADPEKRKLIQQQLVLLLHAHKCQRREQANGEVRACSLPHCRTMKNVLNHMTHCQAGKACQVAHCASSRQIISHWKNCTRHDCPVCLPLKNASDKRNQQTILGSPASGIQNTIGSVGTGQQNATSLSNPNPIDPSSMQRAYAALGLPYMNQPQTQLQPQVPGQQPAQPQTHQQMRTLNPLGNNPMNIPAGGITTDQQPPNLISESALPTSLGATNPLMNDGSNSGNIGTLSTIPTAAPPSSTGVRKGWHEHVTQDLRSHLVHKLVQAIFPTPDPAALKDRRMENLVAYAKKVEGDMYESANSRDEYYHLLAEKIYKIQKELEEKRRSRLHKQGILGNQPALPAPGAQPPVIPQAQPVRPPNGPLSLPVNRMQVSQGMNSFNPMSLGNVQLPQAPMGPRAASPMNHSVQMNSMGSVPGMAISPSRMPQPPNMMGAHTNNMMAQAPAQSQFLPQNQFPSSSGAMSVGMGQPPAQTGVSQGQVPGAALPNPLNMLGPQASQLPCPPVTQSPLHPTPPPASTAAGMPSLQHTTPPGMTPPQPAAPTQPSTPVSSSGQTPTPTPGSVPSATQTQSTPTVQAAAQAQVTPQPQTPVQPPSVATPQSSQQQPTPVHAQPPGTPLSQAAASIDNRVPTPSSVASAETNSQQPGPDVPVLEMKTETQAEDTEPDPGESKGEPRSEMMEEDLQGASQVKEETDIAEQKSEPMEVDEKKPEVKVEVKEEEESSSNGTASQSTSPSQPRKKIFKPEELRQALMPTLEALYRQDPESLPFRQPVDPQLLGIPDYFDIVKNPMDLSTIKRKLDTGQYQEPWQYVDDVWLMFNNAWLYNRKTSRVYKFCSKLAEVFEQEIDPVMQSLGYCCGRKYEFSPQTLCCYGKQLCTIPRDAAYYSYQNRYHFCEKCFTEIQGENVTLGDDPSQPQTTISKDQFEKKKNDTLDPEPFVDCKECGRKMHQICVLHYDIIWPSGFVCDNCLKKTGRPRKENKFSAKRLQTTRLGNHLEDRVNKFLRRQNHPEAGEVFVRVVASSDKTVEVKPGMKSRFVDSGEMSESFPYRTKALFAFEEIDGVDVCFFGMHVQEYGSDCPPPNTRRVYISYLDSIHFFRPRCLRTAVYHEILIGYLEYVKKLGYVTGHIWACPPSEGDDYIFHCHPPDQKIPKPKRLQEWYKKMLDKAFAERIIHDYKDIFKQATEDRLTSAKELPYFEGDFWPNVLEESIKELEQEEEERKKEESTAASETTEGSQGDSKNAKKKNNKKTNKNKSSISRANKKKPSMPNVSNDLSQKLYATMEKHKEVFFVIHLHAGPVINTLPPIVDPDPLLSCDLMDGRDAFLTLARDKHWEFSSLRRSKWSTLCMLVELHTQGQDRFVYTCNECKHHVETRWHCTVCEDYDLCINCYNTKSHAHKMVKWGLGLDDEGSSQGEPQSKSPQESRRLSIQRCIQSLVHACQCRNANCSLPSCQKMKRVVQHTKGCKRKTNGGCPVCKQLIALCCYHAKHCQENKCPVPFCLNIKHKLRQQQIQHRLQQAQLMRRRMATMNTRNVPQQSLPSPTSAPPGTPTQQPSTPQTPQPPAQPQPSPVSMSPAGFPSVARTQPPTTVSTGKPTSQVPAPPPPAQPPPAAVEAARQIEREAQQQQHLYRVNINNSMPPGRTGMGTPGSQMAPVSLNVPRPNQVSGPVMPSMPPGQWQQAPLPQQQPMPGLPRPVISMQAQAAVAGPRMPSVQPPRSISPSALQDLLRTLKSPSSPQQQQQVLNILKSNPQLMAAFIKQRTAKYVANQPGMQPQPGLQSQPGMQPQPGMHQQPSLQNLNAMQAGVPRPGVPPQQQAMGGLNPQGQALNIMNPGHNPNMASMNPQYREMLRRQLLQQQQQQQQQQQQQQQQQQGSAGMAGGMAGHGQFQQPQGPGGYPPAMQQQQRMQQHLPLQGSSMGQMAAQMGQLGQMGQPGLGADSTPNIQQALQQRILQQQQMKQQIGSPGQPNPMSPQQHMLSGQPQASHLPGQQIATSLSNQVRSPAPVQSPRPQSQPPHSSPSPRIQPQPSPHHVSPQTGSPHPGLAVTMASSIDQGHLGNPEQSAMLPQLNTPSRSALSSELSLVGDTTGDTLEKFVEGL

CNC(=O)COc1cc2cc(Nc3nc(N4CCC(C(=O)N5CCN(CCC(=O)N6CCC(n7nc(N8CCCc9cc(-c%10cnn(C)c%10)c(C(F)F)cc98)c8c7CCN(C(=O)NC)C8)CC6)CC5)CC4)ncc3Cl)cc(OC)c2n(C)c1=O [TCIP3]
Kd (p300^BD; p300BD titrated into BCL6BTB-saturated TCIP3, read-out: Kd, p300 into BCL6:TCIP3 (ternary)): 2.37 nM | Kd (p300^BD; p300BD titrated into TCIP3, read-out: Kd, binary p300:TCIP3): 8.28 nM | α p300 into BCL6:TCIP3 (p300^BD; α = Kd binary/Kd ternary): 3.5 | concentration at which increase of acetylated BCL6 begins (BCL6): 1 nM
